Literature values, collected in patent US9006268B2, “Prolylcarboxypeptidase inhibitors” (Merck Sharp & Dohme Corp., priority 2010, dated 2015).

Key:
[1] = literature studies of weight loss medications
rats = conditions: intracerebroventricular administration to rats
[2] = system: obese, leptin deficient mice; conditions: systemic administration to obese

Row | Compound | weight loss of body weight for drug compared to placebo [1] | overnight food intake (rats) | overnight food intake [2]
1 | CCCCCCCCCCC[C@@H](C[C@@H]1OC(=O)[C@H]1CCCCCC)OC(=O)[C@H](CC(C)C)NC=O [orlistat] | 5%-10% |  | 
2 | t-butyl carbamate-prolyl prolinal [BPP] |  | suppression of overnight food intake | suppression of overnight food intake
3 | CCN[C@@H](C)Cc1cccc(C(F)(F)F)c1 [dexfenfluramine] | 5%-10% |  | 
4 | CC(C)(N)Cc1ccccc1 [phentermine] | 5%-10% |  | 
5 | CC(C)CC(N(C)C)C1(c2ccc(Cl)cc2)CCC1 (stereo not drawn) [sibutramine] | 5%-10% |  | 
